From patent US20190060428A1, “FORMULATIONS FOR NEOPLASIA VACCINES AND METHODS OF PREPARING THEREOF” (The Broad Institue Inc., priority 2015, published 2019)
Where “and” joins values, the source holds several entries; their conditions need not be identical. Equal entries are not always repeated. Values belong to the substance of their own block, whether it stands above or below them.

How the values were obtained:
[1] = pH of peptide solutions in DMSO/D5W, with succinate, and with Hiltonol; assay type: physicochemical
[2] = Short-term room temperature stability of Pool 3 mixed with Hiltonol (RP-HPLC); assay type: physicochemical
Method: A peptide pool (Pool 3) consisting of the five peptides shown in Table 6 below was prepared by dissolution in DMSO and dilution with D5W/Succinate (2 mM) to 2 mg/ml and pooling to a final peptide concentration of 400 μg per ml and a final DMSO concentration of 4%. After preparation, peptides were filtered with a 25 mm Pall PES filter (Cat#4612) and dispensed into Nunc Cryo vials (#375418) in one ml aliquots.
Three samples were prepared by mixing 0.75 ml of Pool3 with 0.25 ml Hiltonol® as planned for the dosage form preparation. The samples were then left at room temperature for 0, 4 and 6 hours and analyzed by RP-HPLC (Table 7). […] As slight increase in a second peak associated with peptide CS6919 was noted, increasing from 14% to 17% and 18% at 4 and 6 hours, respectively. […] Recovery of all peptides was above 90%, indicating no breakdown and loss of any peptides in the final dosage form after 6 hour room temperature incubation.

[3] = Solubility of peptides in DMSO/D5W/5 mM succinate formulation; conditions: pH 6

- pH of peptides in DMSO/D5W [1]: 3.95
- pH of peptides in DMSO/D5W/5mM S. Succinate spike [1]: 6.23
- pH of peptides in DMSO/D5W/5nnM Succinate and Hiltonol [1]: 6.37
Substance: H-PLMQTELHQLVPEADPEEMA-OH [CS7430]

- pH of peptides in DMSO/D5W [1]: 3.87
- pH of peptides in DMSO/D5W/5mM S. Succinate spike [1]: 6.51
- pH of peptides in DMSO/D5W/5nnM Succinate and Hiltonol [1]: 6.76
Substance: H-SGQPAPEETVLFLGLLHGLLLILRRLRGG-OH [CS6937]

- pH of peptides in DMSO/D5W [1]: 3.9
- pH of peptides in DMSO/D5W/5mM S. Succinate spike [1]: 6.73
- pH of peptides in DMSO/D5W/5nnM Succinate and Hiltonol [1]: 7.02
Substance: H-VQLSIQDVIRRARLSTVPTAQRVALRSGWI-OH [CS7413]

- pH of peptides in DMSO/D5W [1]: 4.38
- pH of peptides in DMSO/D5W/5mM S. Succinate spike [1]: 6.74
- pH of peptides in DMSO/D5W/5nnM Succinate and Hiltonol [1]: 6.99
- % Impurity ([2]; Pool 3 + Hiltonol, 4 Hours RT): 17% and 17.09%
- % Purity ([2]; Pool 3 + Hiltonol, 4 Hours RT): 82.91%
- Main Peak ([2]; Pool 3 + Hiltonol, 4 Hours RT): 7238.56
- Total Impurities ([2]; Pool 3 + Hiltonol, 4 Hours RT): 1492.4
- Total Peak ([2]; Pool 3 + Hiltonol, 4 Hours RT): 8730.96
- % Impurity ([2]; Pool 3 + Hiltonol, 6 Hours RT): 18% and 18.14%
- % Purity ([2]; Pool 3 + Hiltonol, 6 Hours RT): 81.86%
- Main Peak ([2]; Pool 3 + Hiltonol, 6 Hours RT): 7688.89
- Total Impurities ([2]; Pool 3 + Hiltonol, 6 Hours RT): 1703.9
- Total Peak ([2]; Pool 3 + Hiltonol, 6 Hours RT): 9392.79
- % Impurity ([2]; T0 Pool 3 + Hiltonol, RP-HPLC): 14% and 13.9%
- % Purity ([2]; T0 Pool 3 + Hiltonol, RP-HPLC): 86.1%
- Main Peak ([2]; T0 Pool 3 + Hiltonol, RP-HPLC): 7786.28
- Total Impurities ([2]; T0 Pool 3 + Hiltonol, RP-HPLC): 1256.72
- Total Peak ([2]; T0 Pool 3 + Hiltonol, RP-HPLC): 9043
Substance: H-KLAWRGRISSSGCPSMTSPPSPMFGMTLHT-OH [CS6919]

- pH of peptides in DMSO/D5W [1]: 3.65
Substance: H-EPDQEAVQSSTYKDCNTLHLPTERFSPVR-OH [CS6710]

- pH of peptides in DMSO/D5W [1]: 3.82
Substance: H-RGLHSQGLGRGRIAMAQTAGVLRSLEQEE-OH [CS6711]

- pH of peptides in DMSO/D5W [1]: 3.84
- pH of peptides in DMSO/D5W/5mM S. Succinate spike [1]: 6.38
- pH of peptides in DMSO/D5W/5nnM Succinate and Hiltonol [1]: 6.56
Substance: H-IGALNPKRAAFFAEHYESWE-OH [CS7420]

- pH of peptides in DMSO/D5W [1]: 3.72
- pH of peptides in DMSO/D5W/5mM S. Succinate spike [1]: 6.22
- pH of peptides in DMSO/D5W/5nnM Succinate and Hiltonol [1]: 6.45
Substance: H-WDGPPENDMLLKEICGSLIP-OH [CS7432]

Substance: H-ETYSRSFYPEHSIKEWLIGMELVFV-OH
- solubility [3]: < 2000 µg/mL

Substance: H-GALGAVGATKVPRNQDWLGVSRQLRTKA-OH
- solubility [3]: > 2000 µg/mL

- pH of peptides in DMSO/D5W [1]: 3.78
- pH of peptides in DMSO/D5W/5mM S. Succinate spike [1]: 6.44
- pH of peptides in DMSO/D5W/5nnM Succinate and Hiltonol [1]: 6.65
Substance: H-SYDSVIRELLQKPNVRVVVL-OH [CS7425]

- pH of peptides in DMSO/D5W [1]: 3.81
- pH of peptides in DMSO/D5W/5mM S. Succinate spike [1]: 6.71
- pH of peptides in DMSO/D5W/5nnM Succinate and Hiltonol [1]: 6.99
Substance: H-KGASLDAGWGSPRWTTTRMTSASAGRSTRA-OH [CS7414]

Substance: H-LDVLQRPLSPGNSEFLTATANYSK-OH
- solubility [3]: < 2000 µg/mL

- pH of peptides in DMSO/D5W [1]: 3.91
- pH of peptides in DMSO/D5W/5mM S. Succinate spike [1]: 6.31
- pH of peptides in DMSO/D5W/5nnM Succinate and Hiltonol [1]: 6.54
- % Impurity ([2]; Pool 3 + Hiltonol, 4 Hours RT): 2.56%
- % Purity ([2]; Pool 3 + Hiltonol, 4 Hours RT): 97.44%
- Main Peak ([2]; Pool 3 + Hiltonol, 4 Hours RT): 5669.85
- Total Impurities ([2]; Pool 3 + Hiltonol, 4 Hours RT): 148.82
- Total Peak ([2]; Pool 3 + Hiltonol, 4 Hours RT): 5818.67
- % Impurity ([2]; Pool 3 + Hiltonol, 6 Hours RT): 2.1%
- % Purity ([2]; Pool 3 + Hiltonol, 6 Hours RT): 97.9%
- Main Peak ([2]; Pool 3 + Hiltonol, 6 Hours RT): 6197.48
- Total Impurities ([2]; Pool 3 + Hiltonol, 6 Hours RT): 132.83
- Total Peak ([2]; Pool 3 + Hiltonol, 6 Hours RT): 6330.31
- % Impurity ([2]; T0 Pool 3 + Hiltonol, RP-HPLC): 2.35%
- % Purity ([2]; T0 Pool 3 + Hiltonol, RP-HPLC): 97.65%
- Main Peak ([2]; T0 Pool 3 + Hiltonol, RP-HPLC): 5988.42
- Total Impurities ([2]; T0 Pool 3 + Hiltonol, RP-HPLC): 143.98
- Total Peak ([2]; T0 Pool 3 + Hiltonol, RP-HPLC): 6132.4
Substance: H-AESAQRQGPNGGGEQSANEF-OH [CS7416]

- pH of peptides in DMSO/D5W [1]: 3.72
- pH of peptides in DMSO/D5W/5mM S. Succinate spike [1]: 6.34
- pH of peptides in DMSO/D5W/5nnM Succinate and Hiltonol [1]: 6.52
Substance: H-VEQGHVRVGPDVVTHPAFLV-OH [CS7427]

- pH of peptides in DMSO/D5W [1]: 3.95
Substance: H-GTYLQGTASALSQSQERPPSVNRVPPSSPSSQE-OH [CS6725]

Substance: H-PETGEIQVKTFLDREQRESYELKV-OH
- solubility [3]: > 2000 µg/mL

Substance: H-AVRSPGSPLILEVGSGSGAIS-OH
- solubility [3]: > 2000 µg/mL

- pH of peptides in DMSO/D5W [1]: 3.86
- pH of peptides in DMSO/D5W/5mM S. Succinate spike [1]: 6.57
- pH of peptides in DMSO/D5W/5nnM Succinate and Hiltonol [1]: 6.79
- % Impurity ([2]; Pool 3 + Hiltonol, 4 Hours RT): 3.06%
- % Purity ([2]; Pool 3 + Hiltonol, 4 Hours RT): 96.94%
- Main Peak ([2]; Pool 3 + Hiltonol, 4 Hours RT): 5842.22
- Total Impurities ([2]; Pool 3 + Hiltonol, 4 Hours RT): 184.46
- Total Peak ([2]; Pool 3 + Hiltonol, 4 Hours RT): 6026.68
- % Impurity ([2]; Pool 3 + Hiltonol, 6 Hours RT): 3.41%
- % Purity ([2]; Pool 3 + Hiltonol, 6 Hours RT): 96.59%
- Main Peak ([2]; Pool 3 + Hiltonol, 6 Hours RT): 6268.16
- Total Impurities ([2]; Pool 3 + Hiltonol, 6 Hours RT): 221.46
- Total Peak ([2]; Pool 3 + Hiltonol, 6 Hours RT): 6489.62
- % Impurity ([2]; T0 Pool 3 + Hiltonol, RP-HPLC): 3.83%
- % Purity ([2]; T0 Pool 3 + Hiltonol, RP-HPLC): 96.17%
- Main Peak ([2]; T0 Pool 3 + Hiltonol, RP-HPLC): 6147.14
- Total Impurities ([2]; T0 Pool 3 + Hiltonol, RP-HPLC): 244.49
- Total Peak ([2]; T0 Pool 3 + Hiltonol, RP-HPLC): 6391.63
Substance: H-SKRGVGAKTLLLPDPFLFWPCLEGTRRSL-OH [CS6934]

Substance: H-ASRALEEKKGNYVVTDHGSCVRA-OH
- solubility [3]: > 2000 µg/mL

- pH of peptides in DMSO/D5W [1]: 3.80
- pH of peptides in DMSO/D5W/5mM S. Succinate spike [1]: 6.42
- pH of peptides in DMSO/D5W/5nnM Succinate and Hiltonol [1]: 6.66
- % Impurity ([2]; Pool 3 + Hiltonol, 4 Hours RT): 3.02%
- % Purity ([2]; Pool 3 + Hiltonol, 4 Hours RT): 96.98%
- Main Peak ([2]; Pool 3 + Hiltonol, 4 Hours RT): 8523.53
- Total Impurities ([2]; Pool 3 + Hiltonol, 4 Hours RT): 265.54
- Total Peak ([2]; Pool 3 + Hiltonol, 4 Hours RT): 8789.07
- % Impurity ([2]; Pool 3 + Hiltonol, 6 Hours RT): 3.21%
- % Purity ([2]; Pool 3 + Hiltonol, 6 Hours RT): 96.79%
- Main Peak ([2]; Pool 3 + Hiltonol, 6 Hours RT): 9387.81
- Total Impurities ([2]; Pool 3 + Hiltonol, 6 Hours RT): 311.37
- Total Peak ([2]; Pool 3 + Hiltonol, 6 Hours RT): 9699.18
- % Impurity ([2]; T0 Pool 3 + Hiltonol, RP-HPLC): 2.16%
- % Purity ([2]; T0 Pool 3 + Hiltonol, RP-HPLC): 97.84%
- Main Peak ([2]; T0 Pool 3 + Hiltonol, RP-HPLC): 9014.82
- Total Impurities ([2]; T0 Pool 3 + Hiltonol, RP-HPLC): 198.6
- Total Peak ([2]; T0 Pool 3 + Hiltonol, RP-HPLC): 9213.42
Substance: H-VAGLAASGLHGSAWLVPGEQPVSGPHHGKQ-OH [CS6931]

Substance: H-DPNKYPVPENWLYKEAHQLFLE-OH
- solubility [3]: > 2000 µg/mL

Substance: H-PAAGDFIRFRFFQLLRLERFF-OH
- solubility [3]: < 2000 µg/mL

- pH of peptides in DMSO/D5W [1]: 3.92
- pH of peptides in DMSO/D5W/5mM S. Succinate spike [1]: 6.49
- pH of peptides in DMSO/D5W/5nnM Succinate and Hiltonol [1]: 6.78
- % Impurity ([2]; Pool 3 + Hiltonol, 4 Hours RT): 0%
- % Purity ([2]; Pool 3 + Hiltonol, 4 Hours RT): 100%
- Main Peak ([2]; Pool 3 + Hiltonol, 4 Hours RT): 6676.54
- Total Impurities ([2]; Pool 3 + Hiltonol, 4 Hours RT): 0
- Total Peak ([2]; Pool 3 + Hiltonol, 4 Hours RT): 6676.54
- % Impurity ([2]; Pool 3 + Hiltonol, 6 Hours RT): 0%
- % Purity ([2]; Pool 3 + Hiltonol, 6 Hours RT): 100%
- Main Peak ([2]; Pool 3 + Hiltonol, 6 Hours RT): 7158.29
- Total Impurities ([2]; Pool 3 + Hiltonol, 6 Hours RT): 0
- Total Peak ([2]; Pool 3 + Hiltonol, 6 Hours RT): 7158.29
- % Impurity ([2]; T0 Pool 3 + Hiltonol, RP-HPLC): 0%
- % Purity ([2]; T0 Pool 3 + Hiltonol, RP-HPLC): 100%
- Main Peak ([2]; T0 Pool 3 + Hiltonol, RP-HPLC): 7140.91
- Total Impurities ([2]; T0 Pool 3 + Hiltonol, RP-HPLC): 0
- Total Peak ([2]; T0 Pool 3 + Hiltonol, RP-HPLC): 7140.91
Substance: H-AHRQGEKQHLLPVFSRLALRLPWRHSVQL-OH [CS6941]

- pH of peptides in DMSO/D5W [1]: 4.20
Substance: H-LPVFIGNIAVNHAPVSLRPGLGLPPGAPPLVVP-OH [CS6730]
